Publication PMC8144350, “Block of TREK and TRESK K2P channels by lamotrigine and two derivatives sipatrigine and CEN-092” (Biochemistry and Biophysics Reports, 2021)
pEC50: −log10 of the molar value.

Key:
Experiment in all cases: whole-cell patch-clamp, tsA201 cells
Assay type in all cases: cell-based
TREK-1 [1] = target: T1, TREK-1 (Homo sapiens, UniProt O95069)
T1 construct: gene KCNK2; wild-type human TREK-1 (NP_055032.1)
T1 sequence (O95069 1-426): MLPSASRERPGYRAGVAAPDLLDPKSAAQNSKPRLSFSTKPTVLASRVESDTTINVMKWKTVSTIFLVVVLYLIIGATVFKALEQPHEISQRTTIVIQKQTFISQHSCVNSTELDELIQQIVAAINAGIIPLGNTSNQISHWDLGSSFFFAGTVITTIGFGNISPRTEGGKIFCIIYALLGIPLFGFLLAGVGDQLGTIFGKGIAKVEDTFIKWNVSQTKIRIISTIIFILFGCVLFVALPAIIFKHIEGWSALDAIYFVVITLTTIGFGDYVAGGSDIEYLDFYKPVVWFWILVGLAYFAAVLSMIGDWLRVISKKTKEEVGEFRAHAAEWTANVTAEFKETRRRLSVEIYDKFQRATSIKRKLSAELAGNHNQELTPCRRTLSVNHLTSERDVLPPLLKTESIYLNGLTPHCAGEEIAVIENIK

TRESK = target: T2, TRESK (Homo sapiens, UniProt Q7Z418)
T2 construct: gene KCNK18; wild-type human TRESK (NP_862823.1)
T2 sequence (Q7Z418 1-384): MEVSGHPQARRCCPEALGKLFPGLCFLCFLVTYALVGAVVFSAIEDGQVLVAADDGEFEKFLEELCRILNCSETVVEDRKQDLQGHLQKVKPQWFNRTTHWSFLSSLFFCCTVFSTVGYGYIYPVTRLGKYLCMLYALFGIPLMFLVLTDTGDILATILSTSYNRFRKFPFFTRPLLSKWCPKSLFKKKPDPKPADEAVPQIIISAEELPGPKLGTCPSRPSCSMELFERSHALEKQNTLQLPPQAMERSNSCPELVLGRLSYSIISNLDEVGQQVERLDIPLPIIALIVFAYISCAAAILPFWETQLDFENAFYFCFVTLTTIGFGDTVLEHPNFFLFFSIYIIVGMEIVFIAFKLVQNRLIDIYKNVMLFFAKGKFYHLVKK

TREK-2 = target: T3, TREK-2 (Homo sapiens, UniProt P57789)
T3 construct: gene KCNK10; wild-type human TREK-2 (NP_612190.1)
T3 sequence (P57789 1-538): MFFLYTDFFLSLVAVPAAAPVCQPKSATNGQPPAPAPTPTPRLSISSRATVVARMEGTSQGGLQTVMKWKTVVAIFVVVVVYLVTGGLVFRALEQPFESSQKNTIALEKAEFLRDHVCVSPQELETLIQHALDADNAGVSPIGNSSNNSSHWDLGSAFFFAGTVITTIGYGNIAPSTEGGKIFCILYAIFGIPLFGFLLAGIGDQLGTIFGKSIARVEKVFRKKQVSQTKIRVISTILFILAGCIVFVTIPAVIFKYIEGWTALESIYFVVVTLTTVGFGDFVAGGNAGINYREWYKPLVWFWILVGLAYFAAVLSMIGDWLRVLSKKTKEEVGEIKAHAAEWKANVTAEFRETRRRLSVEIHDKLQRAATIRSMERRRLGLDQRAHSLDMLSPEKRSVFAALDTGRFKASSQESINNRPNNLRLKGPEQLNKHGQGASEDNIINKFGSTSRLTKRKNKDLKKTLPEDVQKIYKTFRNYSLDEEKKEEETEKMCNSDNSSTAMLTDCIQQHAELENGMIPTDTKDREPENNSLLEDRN

TREK-1 [2] = target: T1, TREK-1; remark: listed apart in the source

SMILES | inhibition at 100 µM (TREK-1 [1]) [%] | inhibition at 100 µM (TRESK) [%] | inhibition at 100 µM (TREK-2) [%] | pEC50 (TREK-1 [2])
Nc1nnc(-c2cc(C(F)(F)F)cc(C(F)(F)F)c2)c(N)n1 [CEN-092, 3,5-diamino-6-(3,5-bistrifluoromethylphenyl)-1,2,4-triazine] | 21 | 43 | – | –
Nc1nnc(-c2cccc(Cl)c2Cl)c(N)n1 [lamotrigine] | 30 | 35 | 14 | –
CN1CCN(c2ncc(-c3cc(Cl)cc(Cl)c3Cl)c(N)n2)CC1 [sipatrigine] | – | – | 85 | 4.80
